Columns and labels:
human ACC2 (Nd) = target: T1, human ACC2 (Nd) (Homo sapiens, UniProt O00763); experiment: ACC2 inhibitory activity (malachite green); assay type: biochemical; details: test compound 10 μM; for inhibition at 10 µM: read-out: ACC2 10 μM inhibitory rate (%)
T1 construct: His6 (from vector pFAST-BacHTa); made in house; host or cells: SF-9 insect cells, recombinant baculovirus BAC-ACC2 (Nd)
Procedure: The ACC2 inhibitory action of the compound of the present invention was evaluated by the following method.
(1) Cloning of Human ACC2 Gene and Preparation of Recombinant Baculovirus
(§1) Human ACC2 gene was cloned by PCR using a human skeletal muscle cDNA library (Clontech) as a template and Primer 1 and Primer 2 shown below. Primer 1 and Primer 2 were prepared by adding SalI, XbaI restriction enzyme recognition sequences based on the information of the base sequence of human ACC2 gene (Genbank Accession U89344).
(§2) PCR was performed using Pyrobest DNA polymerase (TAKARA BIO INC.). The obtained PCR product was cloned to pT7 Blue vector (Novagen) and, after confirmation of the base sequence, digested with restriction enzymes SalI and XbaI. The obtained DNA fragment was inserted into pFAST-BacHTa (Invitrogen) digested with restriction enzymes SalI and XbaI to give expression plasmid ACC2/pFAST-BacHTa.
A plasmid for expression of ACC2 without a mitochondrial targeting sequence was prepared by PCR using the expression plasmid as a template, and Primer 3 (SalI restriction enzyme recognition sequence was added) and Primer 4 prepared by reference to the information of human ACC2 gene base sequence (Genbank Accession U89344).
as §2, with “Pyrobest-DNA” for “Pyrobest DNA”, “AflII.” for “XbaI.”, “ACC2/pFAST-BacHTa” for “pFAST-BacHTa (Invitrogen)”, “AflII” for “XbaI”, “ACC2mito7/pFAST-BacHTa.” for “ACC2/pFAST-BacHTa.”
Using the expression plasmid ACC2mito7/pFAST-BacHTa and BAC-TO-BAC Baculovirus Expression System (Invitrogen), virus stock BAC-ACC2 of recombinant Baculovirus (N terminal deleted (hereinafter Nd)) was prepared.
(2) Preparation of ACC2 (Nd) Protein
SF-9 cells (Invitrogen) were inoculated to a medium (2 L) for insect cells (Sf-900IISFM medium (Invitrogen) containing 10% fetal bovine serum (Trace), 50 mg/L Gentamicin (Invitrogen), 0.1% Pluronic F-68 (Invitrogen)) at 0.5×10^6 cells/mL, and cultured with shaking in Wave Bioreactor (Wave) at 27° C., 20 rpm, rocking angle 6°, oxygen concentration 30%.
On day 4 of the culture, 3 L of the medium for insect cells was added, the rocking angle was set to 8°, and the cells were cultured. On day 5 of the culture, 100 ml of recombinant Baculovirus BAC-ACC2 (Nd) was added, 5 L of the medium for insect cells was further added, the rocking angle was set to 11°, and the cells were cultured for 3 days. The culture medium was centrifuged at 1000×g for 10 min to give virus-infected cells. The cells were washed with phosphate buffered saline (Invitrogen) and centrifuged under the same conditions. The obtained cells were cryopreserved at −80° C.
The cryopreserved cells were thawed in ice and suspended in 900 ml of 25 mM HEPES buffer (pH 7.5) containing 10% Glycerol, 0.13 M NaCl, 1 mM EDTA, 25 mM Sodium β-Glycerophosphate and 1 mM Sodium Orthovanadate, and supplemented with Complete Protease Inhibitor (Nippon Boehringer Ingelheim Co., Ltd.). The obtained suspension was homogenized three times in a polytron homogenizer (Kinematica) at 20,000 rpm for 30 sec. The obtained cell disruption solution was clarified by centrifugation at 31000×g for 60 min, and filtered through a 0.45 μm filter. The filtrate was passed through a column packed with 60 mL of Ni-NTA Super Flow Gel (QUIAGEN) at a flow rate of about 5 mL/min. The column was washed with buffer A (50 mM HEPES (pH 7.5) containing 0.3 M NaCl), further washed with buffer A containing 20 mM Imidazole, and eluted with buffer A containing 100 mM Imidazole. The eluate was concentrated with Vivaspin 20 (Vivascience) with a molecular weight cut off of 30K. The obtained concentrate was dialyzed against 50 mM HEPES (pH 7.5) containing 10 mM MgCl2, 2 mM Dithiothreitol, 10 mM Tripotassium Citrate and 0.3 M NaCl. The inner dialysate was filtered through a 0.22 μm filter to give ACC2 (Nd). […]

human ACC1 = target: T2, human ACC1 (Homo sapiens, UniProt Q13085); experiment: ACC1 inhibitory activity (malachite green); assay type: biochemical; details: test compound 10 μM; for inhibition at 10 µM: read-out: ACC1 10 μM inhibitory rate (%)
T2 construct: His6 (from vector pFAST-BacHTc); made in house; host or cells: SF-9 insect cells, recombinant baculovirus BAC-ACC1
Procedure: The ACC1 inhibitory action of the compound of the present invention was evaluated by the following method.
(1) Cloning of Human ACC1 Gene and Preparation of Recombinant Baculovirus
as §1, with “ACC1” for “ACC2”, “liver” for “skeletal muscle”, “NotI” for “XbaI”, “U19822).” for “U89344).”
as §2, with “NotI.” for “XbaI.”, “pFAST-BacHTc” for “pFAST-BacHTa”, “NotI” for “XbaI”, “ACC1/pFAST-BacHTc.” for “ACC2/pFAST-BacHTa.”
Using the expression plasmid ACC1/pFAST-BacHTc and BAC-TO-BAC Baculovirus Expression System (Invitrogen), virus stock BAC-ACC1 of recombinant Baculovirus was prepared.
(2) Preparation of ACC1 Protein
SF-9 cells (Invitrogen) were inoculated to a medium (1 L) for insect cells (Sf-900IISFM medium (Invitrogen) containing 10% fetal bovine serum (Trace), 50 mg/L Gentamicin (Invitrogen), 0.1% Pluronic F-68 (Invitrogen)) at 1×10^6 cells/mL, and cultured with shaking in 2 L meyer at 27° C., 100 rpm.
After 24 hr of the culture, 10 mL of recombinant Baculovirus BAC-ACC1 was added, and the cells were cultured for 3 days. The culture medium was centrifuged at 1000×g for 5 min to give virus-infected cells. The cells were washed with phosphate buffered saline (Invitrogen) and centrifuged under the same conditions. The obtained cells were cryopreserved at −80° C.
The cryopreserved cells were thawed in ice and suspended in 100 mL of 25 mM HEPES buffer (pH 7.5) containing 10% Glycerol, 0.13 M NaCl, 1 mM EDTA, 25 mM Sodium […] and 1 mM Sodium Orthovanadate, and supplemented with Complete Protease Inhibitor (Nippon Boehringer Ingelheim Co., Ltd.). The obtained suspension was homogenized three times in a polytron homogenizer (Kinematica) at 20,000 rpm for 30 sec. The obtained cell disruption solution was clarified by centrifugation at 185700×g for 50 min, and filtered through a 0.45 μm filter. The filtrate was passed through a column packed with 12 ml of Ni-NTA Super Flow Gel (QUIAGEN) at a flow rate of about 5 mL/min. The column was washed with buffer A (50 mM HEPES (pH 7.5) containing 0.3 M NaCl), further washed with buffer A containing 20 mM Imidazole, and eluted with buffer A containing 100 mM Imidazole. The eluate was concentrated with Vivaspin 20 (Vivascience) with a molecular weight cut off of 30K. The obtained concentrate was dialyzed against Sephadex G-25 (Amersham Biosciences, 358 mL) equilibrated with 50 mM HEPES (pH 7.5) containing 10 mM MgCl2, 2 mM Dithiothreitol, 10 mM Tripotassium Citrate and 0.3 M NaCl. The inner dialysate was concentrated with Vivaspin 20 (Vivascience) with molecular weight cut off of 30K, and concentrate was filtered through a 0.22 μm filter to give ACC1. The obtained ACC1 was cryopreserved at −80° C.
(3) Measurement of ACC1 Inhibitory Activity
ACC1 (0.93 mg/ml) obtained in the above-mentioned (2) was diluted with an enzyme reaction buffer (50 mM HEPES (pH 7.5), 10 mM MgCl2, 10 mM Tripotassium Citrate, 2 mM Dithiothreitol, 0.75 mg/ml Fatty acid free BSA) to a concentration of 8 μg/ml, and the mixture was added to each well of a 384 well assay plate (Nunc 265196) by 10 μl. A test compound was dissolved in dimethyl sulfoxide (DMSO) and the mixture was diluted with an enzyme reaction buffer and the resulting solution (5 μl) was added to each well. The mixture was incubated at 30° C. for 60 min. Then, a substrate solution (50 mM KHCO3, 200 μM ATP, 200 μM Acetyl-CoA, 5 μl) was added to each well, and the mixture was reacted at 30° C. for 20 min (test compound addition group). […]

T1 sequence (O00763 117-2458 limits assumed): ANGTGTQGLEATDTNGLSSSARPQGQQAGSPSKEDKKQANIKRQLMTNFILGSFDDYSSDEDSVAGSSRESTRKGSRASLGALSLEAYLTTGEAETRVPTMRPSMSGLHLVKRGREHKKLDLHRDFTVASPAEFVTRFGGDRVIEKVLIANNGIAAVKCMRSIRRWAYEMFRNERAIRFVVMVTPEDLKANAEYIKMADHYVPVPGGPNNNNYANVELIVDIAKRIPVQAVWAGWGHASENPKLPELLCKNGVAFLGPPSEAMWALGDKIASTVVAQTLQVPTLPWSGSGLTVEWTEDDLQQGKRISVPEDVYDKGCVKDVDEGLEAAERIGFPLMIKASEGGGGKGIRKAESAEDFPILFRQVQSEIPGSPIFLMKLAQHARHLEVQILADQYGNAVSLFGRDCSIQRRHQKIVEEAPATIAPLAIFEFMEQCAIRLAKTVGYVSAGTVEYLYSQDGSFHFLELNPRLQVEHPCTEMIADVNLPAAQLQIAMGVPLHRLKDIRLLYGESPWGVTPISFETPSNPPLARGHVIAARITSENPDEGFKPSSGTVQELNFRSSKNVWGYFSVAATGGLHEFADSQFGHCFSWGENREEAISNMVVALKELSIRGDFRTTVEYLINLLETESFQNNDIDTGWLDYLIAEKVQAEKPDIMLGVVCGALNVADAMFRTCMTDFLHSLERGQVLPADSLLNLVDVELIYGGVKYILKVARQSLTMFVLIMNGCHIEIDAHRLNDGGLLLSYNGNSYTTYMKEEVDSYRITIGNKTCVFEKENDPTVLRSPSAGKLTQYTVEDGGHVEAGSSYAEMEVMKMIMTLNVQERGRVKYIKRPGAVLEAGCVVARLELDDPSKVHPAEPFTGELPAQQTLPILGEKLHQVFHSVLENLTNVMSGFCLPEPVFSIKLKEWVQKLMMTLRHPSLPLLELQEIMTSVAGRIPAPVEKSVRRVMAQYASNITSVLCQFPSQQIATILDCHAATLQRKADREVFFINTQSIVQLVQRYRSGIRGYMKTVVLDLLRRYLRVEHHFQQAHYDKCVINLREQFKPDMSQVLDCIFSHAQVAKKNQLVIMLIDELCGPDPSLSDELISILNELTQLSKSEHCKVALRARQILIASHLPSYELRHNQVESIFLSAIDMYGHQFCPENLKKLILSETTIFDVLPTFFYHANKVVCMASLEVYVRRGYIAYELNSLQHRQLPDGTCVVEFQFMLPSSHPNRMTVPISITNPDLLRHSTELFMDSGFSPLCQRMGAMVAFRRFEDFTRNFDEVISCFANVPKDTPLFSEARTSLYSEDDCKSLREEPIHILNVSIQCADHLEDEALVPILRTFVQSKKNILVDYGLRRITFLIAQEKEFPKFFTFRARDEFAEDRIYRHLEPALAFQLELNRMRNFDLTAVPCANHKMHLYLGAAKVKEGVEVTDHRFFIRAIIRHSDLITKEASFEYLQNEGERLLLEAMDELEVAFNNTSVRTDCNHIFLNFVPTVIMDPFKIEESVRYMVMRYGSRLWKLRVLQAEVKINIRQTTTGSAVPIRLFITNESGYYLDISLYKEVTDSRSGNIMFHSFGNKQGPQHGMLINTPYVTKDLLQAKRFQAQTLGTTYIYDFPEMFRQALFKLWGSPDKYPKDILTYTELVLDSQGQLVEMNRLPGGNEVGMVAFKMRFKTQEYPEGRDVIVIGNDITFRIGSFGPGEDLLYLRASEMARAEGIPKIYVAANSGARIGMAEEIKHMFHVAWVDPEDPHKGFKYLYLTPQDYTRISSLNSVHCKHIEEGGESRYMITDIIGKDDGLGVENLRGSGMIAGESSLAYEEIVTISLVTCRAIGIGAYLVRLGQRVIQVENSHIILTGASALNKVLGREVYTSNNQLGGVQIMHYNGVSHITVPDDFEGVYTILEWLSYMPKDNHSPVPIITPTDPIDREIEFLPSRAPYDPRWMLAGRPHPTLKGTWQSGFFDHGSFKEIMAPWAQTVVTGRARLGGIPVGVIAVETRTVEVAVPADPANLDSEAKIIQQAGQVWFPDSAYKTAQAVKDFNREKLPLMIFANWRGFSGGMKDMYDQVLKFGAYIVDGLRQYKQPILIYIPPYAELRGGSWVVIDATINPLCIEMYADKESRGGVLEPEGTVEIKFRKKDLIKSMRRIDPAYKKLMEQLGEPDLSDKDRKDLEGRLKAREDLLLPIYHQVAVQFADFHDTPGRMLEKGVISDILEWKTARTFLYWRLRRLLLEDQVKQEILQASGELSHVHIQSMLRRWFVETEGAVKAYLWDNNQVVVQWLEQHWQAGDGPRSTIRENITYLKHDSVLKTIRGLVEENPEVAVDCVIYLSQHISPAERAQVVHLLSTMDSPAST

Row | ACC2 10 μM inhibitory rate (%) (human ACC2 (Nd)) | ACC1 10 μM inhibitory rate (%) (human ACC1) | inhibition at 10 µM (human ACC2 (Nd)) [%] | inhibition at 10 µM (human ACC1) [%] | SMILES
1 | 86 | 51 | – | – | CC(=O)N[C@@H](C)[C@@H]1Cc2ccc(C#Cc3ccc(OCC4CC4)cc3)cc2O1.CC(=O)N[C@H](C)[C@H]1Cc2ccc(C#Cc3ccc(OCC4CC4)cc3)cc2O1 (mixture of isomers) [Example 129 (retention time longer), N-{(1R)-1-[(2R)-6-{[4-(cyclopropylmethoxy)phenyl]ethynyl}-2,3-dihydro-1-benzofuran-2-yl]ethyl}acetamide and N-{(1S)-1-[(2S)-6-{[4-(cyclopropylmethoxy)phenyl]ethynyl}-2,3-dihydro-1-benzofuran-2-yl]ethyl}acetamide]
2 | 62 | 25 | – | – | CC(=O)N[C@@H](C)[C@@H]1Cc2ccc(CCc3ccc(OCC4CC4)cc3)cc2O1.CC(=O)N[C@H](C)[C@H]1Cc2ccc(CCc3ccc(OCC4CC4)cc3)cc2O1 (mixture of isomers) [Example 130 (retention time longer), N-{(1R)-1-[(2R)-6-{2-[4-(cyclopropylmethoxy)phenyl]ethyl}-2,3-dihydro-1-benzofuran-2-yl]ethyl}acetamide and N-{(1S)-1-[(2S)-6-{2-[4-(cyclopropylmethoxy)phenyl]ethyl}-2,3-dihydro-1-benzofuran-2-yl]ethyl}acetamide]
3 | – | – | 78 | 30 | CC(=O)N[C@H](C)[C@H]1Cc2ccc(C#Cc3ccc(OCC4CC4)cc3)cc2O1 (racemic) [Example 111, 1:1 mixture of N-{(1R)-1-[(2R)-6-{[4-(cyclopropylmethoxy)phenyl]ethynyl}-2,3-dihydro-1-benzofuran-2-yl]ethyl}acetamide and N-{(1S)-1-[(2S)-6-[([4-(cyclopropylmethoxy)phenyl]ethynyl]-2,3-dihydro-1-benzofuran-2-yl]ethyl}acetamide]
4 | – | – | 73 | 35 | CC(=O)N[C@H](C)[C@H]1Cc2ccc(CCc3ccc(OCC4CC4)cc3)cc2O1 (racemic) [Example 121, 1:1 mixture of N-{(1R)-1-[(2R)-6-{2-[4-(cyclopropylmethoxy)phenyl]ethyl}-2,3-dihydro-1-benzofuran-2-yl]ethyl}acetamide and N-{(1S)-1-[(2S)-6-{2-[4-(cyclopropylmethoxy)phenyl]ethyl}-2,3-dihydro-1-benzofuran-2-yl]ethyl}acetamide]
5 | – | – | 85 | 15 | CCOc1ccc(COc2ccc3oc(C(C)NC(C)=O)cc3c2)cc1 (stereo not shown) [Example 18, N-(1-{5-[(4-ethoxybenzyl)oxy]-1-benzofuran-2-yl}ethyl)acetamide]
6 | – | – | 78 | 24 | CCOc1ccc(COc2ccc3cc(C(C)NC(C)=O)sc3c2)cc1 (stereo not shown) [Example 19, N-(1-{6-[(4-ethoxybenzyl)oxy]-1-benzothiophen-2-yl}ethyl)acetamide]
7 | 83 | 23 | – | – | CCOc1ccc(CCc2ccc3cc(C(C)NC(C)=O)oc3c2)cc1 (stereo not shown) [Example 20, N-(1-{6-[2-(4-ethoxyphenyl)ethyl]-1-benzofuran-2-yl}ethyl)acetamide]
8 | 76 | 18 | – | – | CCOc1ccc(COc2ccc3oc(C(C)NC(C)=O)cc3c2)cc1 (stereo not shown) [Example 27, optically active forms (two kinds) of N-(1-{5-[(4-ethoxybenzyl)oxy]-1-benzofuran-2-yl}ethyl)acetamide]
9 | – | – | 81 | 19 | CCOc1ccc(COc2ccc3oc(C(C)NC(C)=O)cc3c2)c(Cl)c1 (stereo not shown) [Example 28, N-(1-{5-[(2-chloro-4-ethoxybenzyl)oxy]-1-benzofuran-2-yl}ethyl)acetamide]
10 | – | – | 84 | 36 | CCCOc1ccc(CCc2ccc3cc(C(C)NC(C)=O)oc3c2)cc1 (stereo not shown) [Example 32, N-(1-{6-[2-(4-propoxyphenyl)ethyl]-1-benzofuran-2-yl}ethyl)acetamide]
11 | – | – | 77 | -4 | CCOc1ccc(OCc2ccc3sc(C(C)NC(C)=O)nc3c2)cc1 (stereo not shown) [Example 37, N-(1-{5-[(4-ethoxyphenoxy)methyl]-1,3-benzothiazol-2-30 yl}ethyl)acetamide]
